Measured values as given in PubChem BioAssay (NCI).
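GI50 = concentration required for 50% inhibition of growth. TGI is the concentration that stops growth completely.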

Columns and labels:
Assay in all cases: inhibition of tumour cell growth, NCI panel, 384-well format
[1] = system: SNB-75 CNS
[2] = system: HCC-2998 colon
[3] = system: NCI-H322M lung
[4] = system: MDA-MB-435 melanoma
[5] = system: CAKI-1 renal
[6] = system: RPMI-8226 leukemia
[7] = system: HS 578T breast
[8] = system: IGROV1 ovarian
[9] = system: NCI-H23 lung
[10] = system: NCI-H522 lung
[11] = system: HT29 colon
[12] = system: NCI/ADR-RES ovarian
[13] = system: CCRF-CEM leukemia
[14] = system: EKVX NSCLC
[15] = system: OVCAR-3 ovarian
[16] = system: OVCAR-4 ovarian
[17] = system: PC-3 prostate
[18] = system: SR leukemia
[19] = system: ACHN renal
[20] = system: NCI-H226 lung
[21] = system: HOP-62 NSCLC
[22] = system: SW-620 colon
[23] = system: TK-10 renal
[24] = system: K-562 leukemia
[25] = system: OVCAR-8 ovarian
[26] = system: SK-OV-3 ovarian
[27] = system: SF-295 CNS
[28] = system: M14 melanoma
[29] = system: A498 renal
[30] = system: A549 NSCLC
[31] = system: HCT-15 colon
[32] = system: HL-60(TB) leukemia
[33] = system: SK-MEL-28 melanoma
[34] = system: MDA-MB-231 breast
[35] = system: 786-0 renal
[36] = system: SK-MEL-2 melanoma
[37] = system: DU-145 prostate
[38] = system: MALME-3M melanoma
[39] = system: UO-31 renal
[40] = system: SNB-19 CNS
[41] = system: U251 glioblastoma
[42] = system: MOLT-4 leukemia
[43] = system: SF-268 CNS
[44] = system: MCF7 breast
[45] = system: RXF 393 renal
[46] = system: HOP-92 NSCLC
[47] = system: SN12C renal

Cc1ccc(-c2nc(N)nc3c2nnn3Cc2cccc(CO[C@H]3CCOC3)n2)o1
GI50 [1]: > 100 µM | TGI [1]: > 100 µM | GI50 [2]: > 100 µM | TGI [2]: > 100 µM | GI50 [3]: > 100 µM | TGI [3]: > 100 µM | GI50 [4]: > 100 µM | TGI [4]: > 100 µM | GI50 [5]: > 100 µM | TGI [5]: > 100 µM | GI50 [6]: 93.6 µM | TGI [6]: > 100 µM | GI50 [7]: > 100 µM | TGI [7]: > 100 µM | GI50 [8]: > 100 µM | TGI [8]: > 100 µM | GI50 [9]: > 100 µM | TGI [9]: > 100 µM | GI50 [10]: > 100 µM | TGI [10]: > 100 µM | GI50 [11]: > 100 µM | TGI [11]: > 100 µM | GI50 [12]: > 77.1 µM | TGI [12]: > 100 µM | GI50 [13]: 72 µM | TGI [13]: > 100 µM | GI50 [14]: > 100 µM | TGI [14]: > 100 µM | GI50 [15]: > 100 µM | TGI [15]: > 100 µM | GI50 [16]: > 100 µM | TGI [16]: > 100 µM | GI50 [17]: > 100 µM | TGI [17]: > 100 µM | GI50 [18]: > 73.2 µM | TGI [18]: > 100 µM | GI50 [19]: > 100 µM | TGI [19]: > 100 µM | GI50 [20]: > 100 µM | TGI [20]: > 100 µM | GI50 [21]: > 100 µM | TGI [21]: > 100 µM | GI50 [22]: > 100 µM | TGI [22]: > 100 µM | GI50 [23]: > 100 µM | TGI [23]: > 100 µM | GI50 [24]: 57.5 µM | TGI [24]: > 100 µM | GI50 [25]: > 100 µM | TGI [25]: > 100 µM | GI50 [26]: > 100 µM | TGI [26]: > 100 µM | GI50 [27]: > 100 µM | TGI [27]: > 100 µM | GI50 [28]: > 100 µM | TGI [28]: > 100 µM | GI50 [29]: > 100 µM | TGI [29]: > 100 µM | GI50 [30]: > 100 µM | TGI [30]: > 100 µM | GI50 [31]: > 100 µM | TGI [31]: > 100 µM | GI50 [32]: > 64.3 µM | TGI [32]: > 100 µM | GI50 [33]: > 100 µM | TGI [33]: > 100 µM | GI50 [34]: 88.2 µM | TGI [34]: > 100 µM | GI50 [35]: > 100 µM | TGI [35]: > 100 µM | GI50 [36]: > 100 µM | TGI [36]: > 100 µM | GI50 [37]: > 100 µM | TGI [37]: > 100 µM | GI50 [38]: > 100 µM | TGI [38]: > 100 µM | GI50 [39]: > 100 µM | TGI [39]: > 100 µM | GI50 [40]: > 100 µM | TGI [40]: > 100 µM | GI50 [41]: > 100 µM | TGI [41]: > 100 µM | GI50 [42]: 42.2 µM | TGI [42]: > 100 µM | GI50 [43]: > 100 µM | TGI [43]: > 100 µM | GI50 [44]: > 100 µM | TGI [44]: > 100 µM | GI50 [45]: 97.4 µM | TGI [45]: > 100 µM | GI50 [46]: > 100 µM | TGI [46]: > 100 µM | GI50 [47]: > 100 µM | TGI [47]: > 100 µM
